Experiment: Waters ACQUITY UPLC BEH C18, 100 × 2.1 mm, 1.7 µm, 40 °C, 0.3 to 0.4 mL/min, estimated dead time 0.63 min; A: water + 0.1% formic acid; B: methanol + 0.1% formic acid; gradient (min/%B) 0/0.5 0.1/0.5 10/80 10.1/99.5 12/99.5
Settings: stereoisomer not certain

SMILES	LC retention time [min]
COc1c(O)cc(O)c2c(=O)cc(-c3ccccc3)oc12	7.27
COc1cc(C(C)=O)cc(OC)c1O	4.31
Cc1ccc2ccc3ccc(C)nc3c2n1	3.47

The next lines start with the values.

LC retention time [min]	SMILES
9.01	CC(C)=CCc1cc(CCc2cc(O)c(CC=C(C)C)c(O)c2)ccc1O
3.22	COc1cc(C=CC(=O)NCCCCN=C(N)N)ccc1O
1.77	C=CC(O)CC(=NOS(=O)(=O)O)SC1OC(CO)C(O)C(O)C1O (configuration not stated)
1.66	C=CCS(=O)CC(NCC1(O)OCC(O)C(O)C1O)C(=O)O (configuration not stated)
